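Compound exposure: 48 hours, 5 concentrations, 96-well plates. Here, GI50 denotes the concentration required for 50% inhibition of growth.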 The source made the active and inactive calls. No stated cut-off is given here; in the data, active = GI50 up to about 1.1 µM and inactive = higher.
Experiments:
Assay in all cases: NCI-60 cell line screen, 48 h
[1] = test system: MDA-MB-231
[2] = test system: SF-268
[3] = test system: OVCAR-5
[4] = test system: HCT-116
[5] = test system: TK-10
[6] = test system: SK-OV-3
[7] = test system: LOX IMVI
[8] = test system: SR
[9] = test system: IGROV-1
[10] = test system: HOP-62
[11] = test system: CCRF-CEM
[12] = test system: SF-539
[13] = test system: M14
[14] = test system: SN12C
[15] = test system: T47D
[16] = test system: EKVX
[17] = test system: Hs-578T
[18] = test system: COLO 205
[19] = test system: RXF 393
[20] = test system: NCI/ADR-RES

Structure (SMILES)	GI50 [1]	GI50 [2]	GI50 [3]	GI50 [4]	GI50 [5]	GI50 [6]	GI50 [7]	GI50 [8]	GI50 [9]	GI50 [10]	GI50 [11]	GI50 [12]	GI50 [13]	GI50 [14]	GI50 [15]	GI50 [16]	GI50 [17]	GI50 [18]	GI50 [19]	GI50 [20]
O=C(O)c1cc(Cl)cc(Cc2cc(Cl)cc(C(=O)O)c2O)c1O	> 100 µM (inactive)	> 100 µM (inactive)	> 100 µM (inactive)	> 100 µM (inactive)	> 100 µM (inactive)	> 100 µM (inactive)	> 100 µM (inactive)	> 100 µM (inactive)	> 100 µM (inactive)	> 100 µM (inactive)	> 100 µM (inactive)	> 100 µM (inactive)	> 100 µM (inactive)	> 100 µM (inactive)	> 100 µM (inactive)	> 100 µM (inactive)	> 100 µM (inactive)	> 100 µM (inactive)	> 100 µM (inactive)	> 100 µM (inactive)
CC(C)OC(=O)c1ccc(NCc2cc(O)ccc2O)cc1	2.2 µM (inactive)	4.07 µM (inactive)	10.4 µM (inactive)	5.81 µM (inactive)	4.53 µM (inactive)	17.3 µM (inactive)	3.4 µM (inactive)	1.06 µM (active)	3.45 µM (inactive)	4.98 µM (inactive)	0.27 µM (active)	1.53 µM (inactive)	6.84 µM (inactive)	1.71 µM (inactive)	2.18 µM (inactive)	3.82 µM (inactive)	2.04 µM (inactive)	3.06 µM (inactive)	1.32 µM (inactive)	1.95 µM (inactive)
c1ccc(CSc2nc(N3CCOCC3)c3cn[nH]c3n2)cc1	17 µM (inactive)	20.4 µM (inactive)	22.3 µM (inactive)	30.5 µM (inactive)	18.5 µM (inactive)	25 µM (inactive)	15.4 µM (inactive)	10.5 µM (inactive)	10.2 µM (inactive)	27 µM (inactive)	0.0438 µM (active)	21 µM (inactive)	23.6 µM (inactive)	13.4 µM (inactive)	15.6 µM (inactive)	16.4 µM (inactive)	13.2 µM (inactive)	12.6 µM (inactive)	6.1 µM (inactive)	15.2 µM (inactive)
O=C1CC(c2ccccc2)NCCCCN2CC(CN1)C(C(O)c1ccccc1)C2=O (stereo not given)	> 100 µM (inactive)	> 100 µM (inactive)	> 100 µM (inactive)	> 100 µM (inactive)	> 100 µM (inactive)	> 100 µM (inactive)	> 100 µM (inactive)	> 100 µM (inactive)	> 100 µM (inactive)	> 100 µM (inactive)	> 100 µM (inactive)	> 100 µM (inactive)	> 100 µM (inactive)	> 100 µM (inactive)	> 100 µM (inactive)	> 100 µM (inactive)	> 100 µM (inactive)	> 100 µM (inactive)	> 100 µM (inactive)	> 100 µM (inactive)
CCOC(=O)C(=CNc1ccc(N(C2=NCC(C)S2)c2ccc(F)c(Cl)c2)cc1)C(=O)OCC (stereo not given)	14.5 µM (inactive)	22.9 µM (inactive)	19.6 µM (inactive)	16 µM (inactive)	21.8 µM (inactive)	21.9 µM (inactive)	16.8 µM (inactive)	21.8 µM (inactive)	20.5 µM (inactive)	21.1 µM (inactive)	7.93 µM (inactive)	25.6 µM (inactive)	18.9 µM (inactive)	17.9 µM (inactive)	13.9 µM (inactive)	19.5 µM (inactive)	22.8 µM (inactive)	17.8 µM (inactive)	6.05 µM (inactive)	17.1 µM (inactive)
CC(=O)N1CN2C(=O)CCC2c2ccccc21 (stereo not given)	> 100 µM (inactive)	> 100 µM (inactive)	> 100 µM (inactive)	> 100 µM (inactive)	> 100 µM (inactive)	> 100 µM (inactive)	> 100 µM (inactive)	0.165 µM (active)	> 100 µM (inactive)	> 100 µM (inactive)	> 100 µM (inactive)	> 100 µM (inactive)	> 100 µM (inactive)	> 100 µM (inactive)	> 100 µM (inactive)	> 100 µM (inactive)	> 100 µM (inactive)	> 100 µM (inactive)	> 100 µM (inactive)	> 100 µM (inactive)
c1csc(-c2ccc(-c3ccsc3)s2)c1	> 100 µM (inactive)	> 100 µM (inactive)	> 100 µM (inactive)	> 100 µM (inactive)	> 100 µM (inactive)	> 100 µM (inactive)	> 100 µM (inactive)	> 100 µM (inactive)	> 100 µM (inactive)	> 100 µM (inactive)	> 100 µM (inactive)	68.5 µM (inactive)	> 100 µM (inactive)	> 100 µM (inactive)	> 27.4 µM (inactive)	> 87.3 µM (inactive)	98.4 µM (inactive)	> 100 µM (inactive)	> 87.9 µM (inactive)	> 100 µM (inactive)
CS(=O)(=O)OCCN(CCOS(C)(=O)=O)c1ccc(/C=N/c2cccc(Cl)c2)cc1	11.5 µM (inactive)	7.55 µM (inactive)	2.95 µM (inactive)	64.9 µM (inactive)	2.19 µM (inactive)	0.561 µM (active)	1.13 µM (inactive)	0.0537 µM (active)	15.5 µM (inactive)	7.23 µM (inactive)	1.82 µM (inactive)	3.68 µM (inactive)	14.5 µM (inactive)	1.4 µM (inactive)	18.2 µM (inactive)	7.36 µM (inactive)	26 µM (inactive)	0.811 µM (active)	2.78 µM (inactive)	3.61 µM (inactive)
CN(CC#N)C(=O)Cc1ccc([N+](=O)[O-])cc1	> 10 µM (inactive)	> 10 µM (inactive)	> 10 µM (inactive)	> 10 µM (inactive)	> 10 µM (inactive)	> 10 µM (inactive)	> 10 µM (inactive)	> 10 µM (inactive)	> 10 µM (inactive)	> 10 µM (inactive)	> 10 µM (inactive)	> 10 µM (inactive)	> 10 µM (inactive)	> 10 µM (inactive)	> 10 µM (inactive)	> 10 µM (inactive)	> 10 µM (inactive)	> 10 µM (inactive)	> 10 µM (inactive)	> 10 µM (inactive)
COc1cc2nn(-c3ccccc3)nc2c2nonc12	> 100 µM (inactive)	> 100 µM (inactive)	> 100 µM (inactive)	41 µM (inactive)	> 100 µM (inactive)	> 100 µM (inactive)	38.8 µM (inactive)	> 100 µM (inactive)	> 100 µM (inactive)	> 100 µM (inactive)	> 100 µM (inactive)	87.5 µM (inactive)	> 100 µM (inactive)	> 100 µM (inactive)	> 100 µM (inactive)	> 100 µM (inactive)	77.3 µM (inactive)	> 100 µM (inactive)	> 100 µM (inactive)	> 100 µM (inactive)
Nc1ncnc2c1ncn2C1OC(COP(=O)(O)CP(=O)(O)O)C(O)C1O (stereo not given)	> 10 µM (inactive)	> 100 µM (inactive)	> 100 µM (inactive)	> 100 µM (inactive)	> 100 µM (inactive)	> 100 µM (inactive)	> 100 µM (inactive)	> 100 µM (inactive)	> 100 µM (inactive)	> 100 µM (inactive)	> 100 µM (inactive)	> 100 µM (inactive)	> 100 µM (inactive)	> 100 µM (inactive)	> 100 µM (inactive)	> 100 µM (inactive)	> 100 µM (inactive)	94.6 µM (inactive)	> 100 µM (inactive)	> 100 µM (inactive)
c1cc2c(cc1C1=NCCN1)c1cc(C3=NCCN3)ccc1n2CC1CCCCC1	16.6 µM (inactive)	4.31 µM (inactive)	22.1 µM (inactive)	12.9 µM (inactive)	51.3 µM (inactive)	18.5 µM (inactive)	16.3 µM (inactive)	7.26 µM (inactive)	18.2 µM (inactive)	23.8 µM (inactive)	11.5 µM (inactive)	3.65 µM (inactive)	33.6 µM (inactive)	14 µM (inactive)	19.1 µM (inactive)	14.1 µM (inactive)	6.19 µM (inactive)	1.74 µM (inactive)	39.5 µM (inactive)	> 100 µM (inactive)
C[N+](C)(CCCn1ccnc1[N+](=O)[O-])CCCn1ccnc1[N+](=O)[O-]	> 100 µM (inactive)	> 100 µM (inactive)	> 100 µM (inactive)	> 100 µM (inactive)	> 100 µM (inactive)	> 100 µM (inactive)	> 100 µM (inactive)	> 100 µM (inactive)	> 100 µM (inactive)	> 100 µM (inactive)	> 100 µM (inactive)	> 100 µM (inactive)	> 100 µM (inactive)	> 100 µM (inactive)	> 100 µM (inactive)	> 100 µM (inactive)	> 100 µM (inactive)	> 100 µM (inactive)	> 100 µM (inactive)	> 100 µM (inactive)
O=C1OC(c2ccc(O)c(Cl)c2)(c2ccc(O)c(Cl)c2)c2ccc(Br)c3cccc1c23.O=C1OC(c2ccc(O)c(Cl)c2)(c2ccc(O)c(Cl)c2)c2cccc3c(Br)ccc1c23	14.2 µM (inactive)	14.2 µM (inactive)	20.7 µM (inactive)	19.3 µM (inactive)	17.1 µM (inactive)	17.2 µM (inactive)	20 µM (inactive)	21.2 µM (inactive)	18.9 µM (inactive)	21.5 µM (inactive)	16.9 µM (inactive)	18.2 µM (inactive)	28.8 µM (inactive)	15 µM (inactive)	2.9 µM (inactive)	14 µM (inactive)	29.3 µM (inactive)	7.05 µM (inactive)	17.3 µM (inactive)	16.6 µM (inactive)
